Common to all, as to format: cell-based
One test has as its system A. fumigatus MF4839. The experiment in a line: Inhibitor dilution assay in microtiter format, filamentous fungi: A. fumigatus MF4839. The conditions noted are these: Aspergillus fumigatus; A. fumigatus MF4839, 42 hours, 28° C.; read-out: Minimum Inhibitory Concentration. As to the method:
(§1) The compounds are particularly active towards filamentous fungi and yeasts including Candida albicans and Crypt. neoformans. The sensitivity of filamentous fungi and yeast was determined using inhibitor dilution assays in microtiter format. The compounds were dissolved in DMSO at 2 mg/ml and serially diluted in 0.1 M phosphate buffer, pH 7.0 in the microtiter dish from 100 to 0.006 μg/ml. A standardized spore suspension for testing the filamentous fungi was prepared by inoculating Antibiotic Medium #3 containing 1.5% agar with spores such that 1.5×10^3 colony forming units were added per we11. The microtiter wells were filled with 50 μl of buffer containing compound and 50 μl of inoculated medium. The sensitivity of yeasts was determined by inoculating yeast nitrogen base containing 1% dextrose (YNB/G) with aliquots of an overnight yeast culture grown in Yeast Morphology (YM) media at 35° C. and diluting in YNB/G to yield a final concentration of 1.5-7.5×10^3 colony forming units/well. One hundred fifty μl of inoculated media was added per well. To test the sensitivity of yeast, compound was solubilized in 10 percent aqueous DMSO at 2.56 mg/ml. The compound was diluted serially in YNB/G from 128 to 0.06 μg/ml. The wells were filled with 150 μl of drug containing media. […]

Test [1] has as its system Crypt. neoformans MY1051. The experiment in a line: Minimum fungicidal concentration, yeast: Crypt. neoformans MY1051. The settings on record: Cryptococcus neoformans, no growth or no more than three colonies. How it is done:
as §1

For another test, the system named is C. parasilosos MY1010. The experiment in a line: Minimum fungicidal concentration, yeast: C. parasilosos MY1010. The settings on record: no growth or no more than three colonies. As to the method:
as §1

The next test relates to C. tropicalis MY1012. The experiment in a line: Inhibitor dilution assay in microtiter format, yeast MIC: C. tropicalis MY1012. The settings on record: Candida tropicalis; C. tropicalis MY1012, 24 to 48 hours, 35° C.; read-out: Minimum Inhibitory Concentration. As to the method: as §1
Another test has as its system C. parapsilosis MY1010. Briefly: Inhibitor dilution assay in microtiter format, yeast MIC: C. parapsilosis MY1010. The conditions noted are these: Lodderomyces parapsilosis; C. parapsilosis MY1010, 24 to 48 hours, 35° C.; read-out: Minimum Inhibitory Concentration. How it is done:
as §1

In a further test the test system is T. Mentagrophytes MF4864. The experiment in a line: Inhibitor dilution assay in microtiter format, filamentous fungi: T. Mentagrophytes MF4864. The conditions noted are these: Trichophyton mentagrophytes; T. Mentagrophytes MF4864, 42 hours, 28° C.; read-out: Minimum Inhibitory Concentration. How it is done:
as §1

Test [2] concerns C. albicans MY1055. The experiment in a line: Inhibitor dilution assay in microtiter format, yeast MIC: C. albicans MY1055. The settings on record: Candida albicans; C. albicans MY1055, 24 to 48 hours, 35° C.; read-out: Minimum Inhibitory Concentration. How it is done: as §1
Test [3] has as its system Crypt. neoformans MY1051. The experiment in a line: Inhibitor dilution assay in microtiter format, yeast MIC: Crypt. neoformans MY1051. The conditions noted are these: Cryptococcus neoformans; Crypt. neoformans MY1051, 24 to 48 hours, 35° C.; read-out: Minimum Inhibitory Concentration. How it is done:
as §1

A further test deals with C. tropialis MY1012. Briefly: Minimum fungicidal concentration, yeast: C. tropialis MY1012. The settings on record: no growth or no more than three colonies. How it is done: as §1
A further test concerns A. flavus MF383. The experiment in a line: Inhibitor dilution assay in microtiter format, filamentous fungi: A. flavus MF383. The settings on record: Aspergillus flavus; A. flavus MF383, 42 hours, 28° C.; read-out: Minimum Inhibitory Concentration. How it is done: as §1
Test [4] concerns C. albicans MY1055. Briefly: Minimum fungicidal concentration, yeast: C. albicans MY1055. The conditions noted are these: Candida albicans, no growth or no more than three colonies. How it is done:
as §1

Another test relates to Coch. miyabeanus MF4626. The experiment in a line: Inhibitor dilution assay in microtiter format, filamentous fungi: Coch. miyabeanus MF4626. The settings on record: Bipolaris oryzae, MF4626, 42 h, read-out: Minimum Inhibitory Concentration. As to the method: as §1
Another test has as its system Fus. oxysproum MF4014. Briefly: Inhibitor dilution assay in microtiter format, filamentous fungi: Fus. oxysproum MF4014. The conditions noted are these: Fus. oxysproum MF4014, 42 hours, 28° C.; read-out: Minimum Inhibitory Concentration. As to the method:
as §1

A further test concerns A. niger MF442. The experiment in a line: Inhibitor dilution assay in microtiter format, filamentous fungi: A. niger MF442. The conditions noted are these: Aspergillus niger; A. niger MF442, 42 hours, 28° C.; read-out: Minimum Inhibitory Concentration. As to the method: as §1
The subject of another test is Pen. italicum MF2819. The experiment in a line: Inhibitor dilution assay in microtiter format, filamentous fungi: Pen. italicum MF2819. The settings on record: Penicillium italicum; Pen. italicum MF2819, 42 hours, 28° C.; read-out: Minimum Inhibitory Concentration. How it is done: as §1

Values after ≈ are worked out from the molar mass of the structure shown.

Regarding `CC=CCCCCC=CCCCCC(=O)OC1C(O)C2(CCC(C)C(O)C(C)CC=Cc3ccccc3)OC(C(=O)OC)C(O)(C(=O)OC)C1(C(=O)OC)O2` (stereo not shown) [Compound B], the MIC in the test with A. fumigatus MF4839, in the test with C. tropicalis MY1012, in the test with C. parapsilosis MY1010, in the test with T. Mentagrophytes MF4864, in the test on C. albicans MY1055 [2] and in the test on Crypt. neoformans MY1051 [3] was over 128 µg/mL each time. For the same molecule, the MIC with A. flavus MF383 was over 128 µg/mL. Moreover, the MFC in the test with Crypt. neoformans MY1051 [1], with C. parasilosos MY1010, against C. tropialis MY1012 and against C. albicans MY1055 [4] was over 128 µg/mL throughout.
As for `CC=CCCCCC=CCCCCC(=O)OC1C(O)C2(CCC(C)C(O)C(C)CC=Cc3ccccc3)OC(C(=O)O)C(O)(C(=O)O)C1(C(=O)O)O2` (stereo not shown) [Compound A], the MIC in the test on A. fumigatus MF4839 was 0.098 µg/mL (≈ 0.134 µM); with Coch. miyabeanus MF4626, 1.6 µg/mL (≈ 2.19 µM); with Fus. oxysproum MF4014 it was over 100 µg/mL; with C. tropicalis MY1012, 4 µg/mL (≈ 5.47 µM); in the test with C. parapsilosis MY1010, 4 µg/mL (≈ 5.47 µM); in the test on A. niger MF442 it was 100 µg/mL (≈ 137 µM). Besides, the MIC with C. albicans MY1055 [2] was determined as 8 µg/mL (≈ 10.9 µM); in the test with Crypt. neoformans MY1051 [3], 4 µg/mL (≈ 5.47 µM); with Pen. italicum MF2819 it was 0.025 µg/mL (≈ 0.0342 µM); in the test with A. flavus MF383, 0.098 µg/mL (≈ 0.134 µM). For the same molecule, the MFC against Crypt. neoformans MY1051 [1] stood at 2 µg/mL (≈ 2.74 µM); in the test with C. parasilosos MY1010, 1 µg/mL (≈ 1.37 µM); in the test with C. tropialis MY1012 it was 1 µg/mL (≈ 1.37 µM); in the test on C. albicans MY1055 [4], 4 µg/mL (≈ 5.47 µM).

One may read the MFC as the lowest tested concentration that kills the fungus rather than only halting it.
